Test results reported in paper PMC10178506, “Chemical and Biological Evaluation of Novel 1H-Chromeno[3,2-c]pyridine Derivatives as MAO Inhibitors Endowed with Potential Anticancer Activity” (International Journal of Molecular Sciences, 2023).
Where “and” joins values, the source holds several entries; their conditions need not be identical. Equal entries are not always repeated. Where two headings read alike, the source gives them in different places.

How the values were obtained:
[1] = tested on: HCT116, colon cancer cell line; experiment: Antiproliferative activity, sulforhodamine-B (SRB) assay, HCT116; format: cell-based, human; details: read-out: Antiproliferative activity IC50, HCT116
Method: (§1) The SK-OV-3 ovarian cancer cell line, MCF-7 breast cancer line and HCT-116 colon cancer cell line were obtained from the National Cancer Institute, Biological Testing Branch (Frederick, MD, USA), and maintained in the logarithmic phase at 37 °C in a 5% CO2 humidified air in RPMI 1640 medium supplemented with 10% fetal calf serum, 2 mM glutamine, penicillin (100 U/mL) and streptomycin (0.1 mg/mL).
(§2) The growth inhibitory effects of compounds under investigation were compared to those of cisplatin (CDDP) and doxorubicin (DXR), used as positive controls, and evaluated by using the sulforhodamine-B (SRB) assay. Briefly, cells were seeded into 96-well microtiter plates in 100 µL of the appropriate culture medium at plating densities at 2500, 5000 and 8000 cells/well for MCF-7, HCT-116 and SKOV-3, respectively, depending upon the doubling time of individual cell lines. After seeding, microtiter plates were incubated at 37 °C for 24 h before adding the test compounds. After 24 h, several samples of each cell line were fixed in situ with cold trichloroacetic acid (TCA) to represent a measurement of the cell population at the time of compound addition. The test compounds were freshly dissolved in dimethyl sulfoxide (DMSO, 10^−2 M) and gradually diluted to different concentrations (0.79–50 µM) with a complete medium, so that the maximum DMSO/well ratio was 0.5% v/v. After the addition of different compound concentrations to triplicate wells, the plates were further incubated at 37 °C for 72 h. Cells were fixed in situ by the gentle addition of 50 µL of cold 50% w/v TCA (final concentration 10%) and incubated for 1 h at 4 °C. The supernatant was discarded, and the plates were washed with tap water and air-dried. SRB solution (100 µL) at 0.4% (w/v) in 1% acetic acid was added to each well, and the plates were incubated for 30 min at room temperature. After staining, the unbound dye was removed by washing with 1% acetic acid and the plates were air-dried. The bound stain was then solubilized with 10mM Trizma base and the absorbance was read on an automatic plate reader at 570 nm.

human recombinant MAO B = molecular target: T1, human recombinant MAO B (Homo sapiens, UniProt P27338); experiment: biochemical; format: biochemical; details: for MAO B inhibition mechanism: Michaelis-Menten curves' fitting, kynuramine as the substrate; for IC50: hMAO-B IC50, mean ± S.D., determined for compounds with more than 60% inhibition at 10 μM
T1 construct: purchased Sigma Aldrich (Milan, Italy); host or cells: baculovirus-infected insect cells
T1 sequence (P27338 1-520): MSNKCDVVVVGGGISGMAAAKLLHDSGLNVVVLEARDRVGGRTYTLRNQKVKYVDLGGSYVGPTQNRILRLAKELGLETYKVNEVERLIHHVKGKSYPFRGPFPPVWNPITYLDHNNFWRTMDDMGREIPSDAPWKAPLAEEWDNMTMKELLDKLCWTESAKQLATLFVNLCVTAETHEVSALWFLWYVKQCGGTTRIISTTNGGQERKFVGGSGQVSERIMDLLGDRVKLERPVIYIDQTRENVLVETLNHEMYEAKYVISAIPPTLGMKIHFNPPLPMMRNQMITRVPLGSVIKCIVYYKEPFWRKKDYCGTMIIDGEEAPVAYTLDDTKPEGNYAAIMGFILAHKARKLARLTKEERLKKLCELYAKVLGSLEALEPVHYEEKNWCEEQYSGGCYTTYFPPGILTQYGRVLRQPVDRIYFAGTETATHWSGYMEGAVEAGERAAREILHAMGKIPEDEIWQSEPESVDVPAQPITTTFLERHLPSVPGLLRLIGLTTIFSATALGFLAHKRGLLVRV

[2] = tested on: MCF-7, human breast carcinoma cell; experiment: Antiproliferative activity, sulforhodamine-B (SRB) assay, MCF-7; format: cell-based; details: read-out: Antiproliferative activity IC50, MCF-7
Method: as §1, §2

BChE from human serum = molecular target: T2, BChE from human serum (Homo sapiens, UniProt P06276); experiment: biochemical; details: 10 μM concentration, mean ± S.D. (n = 3), n.i. = no inhibition at 10 μM; for inhibition at 10 µM: read-out: hBChE % inhibition at 10 μM
T2 construct: ChEs (human recombinant AChE and BChE from human serum), purchased from Sigma Aldrich (Milan, Italy); purchased Sigma Aldrich (Milan, Italy); host or cells: human serum (natural source)
T2 sequence (P06276 29-602): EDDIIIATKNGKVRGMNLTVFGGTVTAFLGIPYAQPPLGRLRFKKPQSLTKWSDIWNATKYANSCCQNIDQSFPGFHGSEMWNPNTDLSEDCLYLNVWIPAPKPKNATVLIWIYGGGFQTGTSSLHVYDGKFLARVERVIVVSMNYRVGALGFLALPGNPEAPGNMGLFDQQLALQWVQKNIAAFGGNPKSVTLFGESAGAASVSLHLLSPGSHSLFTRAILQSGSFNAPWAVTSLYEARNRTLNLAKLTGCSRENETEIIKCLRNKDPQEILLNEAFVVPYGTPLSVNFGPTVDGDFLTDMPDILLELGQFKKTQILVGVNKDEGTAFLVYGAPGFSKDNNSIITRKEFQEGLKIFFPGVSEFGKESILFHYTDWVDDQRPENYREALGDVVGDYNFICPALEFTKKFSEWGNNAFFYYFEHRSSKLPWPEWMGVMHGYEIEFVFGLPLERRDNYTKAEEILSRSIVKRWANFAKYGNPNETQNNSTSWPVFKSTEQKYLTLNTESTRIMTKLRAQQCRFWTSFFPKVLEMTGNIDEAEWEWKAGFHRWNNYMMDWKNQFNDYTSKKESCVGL
Method: (§3) Human isoforms of MAOs (from baculovirus-infected insect cells) and ChEs (human recombinant AChE and BChE from human serum), purchased from Sigma Aldrich (Milan, Italy), were used for inhibition assays. Experiments were performed in 96-well plates (Greiner Bio-One, Kremsmünster, Austria) on the Infinite M1000 Pro plate reader (Tecan, Cernusco s.N., Italy), using already published protocols.
(§4) The inhibition of human recombinant AChE or BChE from human serum was determined by applying Ellman’s spectrophotometric method as described in previously reported protocols. The AChE activity was determined in an assay solution containing AChE (0.09 U/mL), 5,5′-dithiobis(2-nitrobenzoic acid) (i.e., the Ellman’s reagent, 0.33 mM), the test compound (10 μM concentration, or seven scalar concentrations for compounds achieving > 60% enzyme inhibition at 10 μM), in 0.1 M PBS pH 8.0. […] The BChE inhibitory activity was similarly determined by using BChE (0.09 U/mL) and butyrylthiocholine iodide (5 μM) as the substrate.
(§5) The IC50 values, Michaelis–Menten curve fitting and inhibition constant (Ki) were calculated by nonlinear regression, using Prism software.

human recombinant AChE = molecular target: T3, human recombinant AChE (Homo sapiens, UniProt P22303); experiment: biochemical; details: for inhibition at 10 µM: read-out: hAChE % inhibition at 10 μM
T3 construct: purchased Sigma Aldrich (Milan, Italy)
T3 sequence (P22303 32-614): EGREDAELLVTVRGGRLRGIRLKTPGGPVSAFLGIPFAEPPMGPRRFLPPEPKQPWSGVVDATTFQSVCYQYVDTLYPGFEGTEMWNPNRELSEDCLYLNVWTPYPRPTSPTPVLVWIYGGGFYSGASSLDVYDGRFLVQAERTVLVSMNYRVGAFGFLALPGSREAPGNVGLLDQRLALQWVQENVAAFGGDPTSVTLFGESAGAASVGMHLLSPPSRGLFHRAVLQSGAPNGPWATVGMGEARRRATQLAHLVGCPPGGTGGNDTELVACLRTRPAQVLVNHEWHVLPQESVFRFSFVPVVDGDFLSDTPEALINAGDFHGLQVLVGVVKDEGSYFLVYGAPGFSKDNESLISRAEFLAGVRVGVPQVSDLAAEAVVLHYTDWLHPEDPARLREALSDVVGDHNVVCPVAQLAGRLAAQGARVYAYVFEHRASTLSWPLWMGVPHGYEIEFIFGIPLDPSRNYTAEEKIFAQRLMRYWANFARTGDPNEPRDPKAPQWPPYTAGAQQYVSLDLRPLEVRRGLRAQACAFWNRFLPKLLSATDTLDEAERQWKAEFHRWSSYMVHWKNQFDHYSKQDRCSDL
Method: as §3, §4, §5

[3] = tested on: SK-OV-3, human ovarian carcinoma with intrinsic resistance to cisplatin; experiment: Antiproliferative activity, sulforhodamine-B (SRB) assay, SK-OV-3; format: cell-based; details: read-out: Antiproliferative activity IC50, SK-OV-3
Method: as §1, §2

human recombinant MAO A = molecular target: T4, human recombinant MAO A (Homo sapiens, UniProt P21397); experiment: biochemical; format: biochemical; details: for inhibition at 10 µM: read-out: hMAO-A % inhibition at 10 μM
T4 construct: purchased Sigma Aldrich (Milan, Italy); host or cells: baculovirus-infected insect cells
T4 sequence (P21397 1-527): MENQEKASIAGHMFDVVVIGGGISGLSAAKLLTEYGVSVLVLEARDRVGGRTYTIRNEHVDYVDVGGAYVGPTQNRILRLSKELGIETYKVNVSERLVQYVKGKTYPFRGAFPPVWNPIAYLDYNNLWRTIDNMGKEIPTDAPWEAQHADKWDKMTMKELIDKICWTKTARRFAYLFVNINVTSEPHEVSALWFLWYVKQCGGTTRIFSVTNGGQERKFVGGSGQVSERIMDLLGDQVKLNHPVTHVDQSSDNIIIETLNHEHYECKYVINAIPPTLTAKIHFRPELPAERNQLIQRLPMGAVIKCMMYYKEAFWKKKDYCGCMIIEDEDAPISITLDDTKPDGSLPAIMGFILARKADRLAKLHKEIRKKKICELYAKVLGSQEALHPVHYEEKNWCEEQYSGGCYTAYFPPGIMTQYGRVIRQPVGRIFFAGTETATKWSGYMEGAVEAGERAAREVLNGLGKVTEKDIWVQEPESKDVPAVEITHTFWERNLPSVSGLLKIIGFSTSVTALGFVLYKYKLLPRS
Method: as §3
After the addition of human recombinant MAO A (250 U/mg) or MAO B (59 U/mg) and a further 30 min of incubation, NaOH was added, and the fluorescence read at 310/400 nm excitation/emission wavelength. […] IC50 is expressed as mean ± SD of three independent measurements, each one performed in duplicate. For the kinetic study on the inhibition mechanism of MAO B, three diverse scalar concentrations of the inhibitor and seven concentrations of kynuramine were used.
as §5

[4] = Homo sapiens, HCT-116, 72 h exposure, SRB assay, mean ± S.D., >50 = less than 50% growth inhibition at 50 μM
[5] = Homo sapiens, MCF7, 72 h exposure, SRB assay, mean ± S.D., >50 = less than 50% growth inhibition at 50 μM
[6] = Homo sapiens, SK-OV-3, 72 h, 72 h exposure, SRB assay, mean ± S.D., >50 = less than 50% growth inhibition at 50 μM
[7] = 72 h exposure, SRB assay, mean ± S.D., >50 = less than 50% growth inhibition at 50 μM

| SMILES | melting point [°C] | IC50 [1, 4] [µM] | IC50 (human recombinant MAO B) | IC50 [2, 5] [µM] | inhibition at 10 µM (BChE from human serum) [%] | inhibition at 10 µM (human recombinant AChE) [%] | IC50 [3, 6] [µM] | inhibition at 10 µM (human recombinant MAO A) [%] | also measured |
| --- | --- | --- | --- | --- | --- | --- | --- | --- | --- |
| COc1cccc2c1O[C@]1(O)CCN(C)C[C@@H]1[C@@H]2O | 134 to 135 | – | – | – | – | – | – | – | – |
| CN1CCC2=C(C1)C(C[N+](=O)[O-])c1cc(Br)ccc1O2 (stereo not shown) | 140 to 142 | – | – | – | – | – | – | – | – |
| COc1cccc2c(=O)c3c(oc12)C=CN(C)C3C#Cc1ccccc1 (stereo not shown) [3b, 6-Metoxy-2-methyl-1-(phenylethinyl)-1H-chromeno[3,2-c]pyridine-10(2H)-one] | – | 36.1 ± 2.1 | 0.63 µM and 0.626 µM | 39.7 ± 11.3 | 19 | 39 | > 50 | 32 | Ki (human recombinant MAO B): 1.41 ± 0.21 µM; MAO B inhibition mechanism (human recombinant MAO B): competitive; MAO B/A selectivity (human recombinant MAO B; from MAO B and MAO A inhibition data): more than twentyfold |
| CN1CC[C@@]2(O)Oc3ccc(Cl)cc3[C@@H](O)[C@@H]2C1 | 167 to 168 | – | – | – | – | – | – | – | – |
| CCN1C=Cc2oc3ccccc3c(=O)c2C1C#CC(F)(F)F (stereo not shown) [3c, 2-Ethyl-1-(3,3,3-trifluoroprop-1-yn-1-yl)-1,2-dihydro-10H-chromeno[3,2-c]pyridin-10-one] | – | 47.2 ± 5.42 | – | 27.8 ± 9.6 | 15 | – | > 50 | 20 | inhibition at 10 µM (human recombinant MAO B; read-out: hMAO-B % inhibition at 10 μM): 26%; hAChE % inhibition at 10 μM (human recombinant AChE): n.i. |
| CN1CCC2=C(C1)C(c1c[nH]c3ccc(Br)cc13)c1cc(Cl)ccc1O2 (stereo not shown) [6c, 8-Chloro-10-(5-bromo-1H-indole-3-yl)-2-methyl-2,3,4,10-tetrahydro-1H-chromeno[3,2-c]pyridine] | – | 9.4 ± 0.22 | 3.51 ± 0.2 µM | 4.83 ± 0.79 | 23 | 37 | 11 | 29 | Ki (human recombinant MAO B): 6.47 ± 0.22 µM; MAO B inhibition mechanism (human recombinant MAO B): competitive; IC50 [3, 7]: 11.3 ± 0.32 µM |
| CN1CC[C@@]2(O)Oc3ccc([N+](=O)[O-])cc3[C@@H](O)[C@H]2C1 | 158 to 159 | – | – | – | – | – | – | – | – |
| N.N.[Cl][Pt][Cl] [Cisplatin, reference compound] | – | – | – | – | – | – | – | – | IC50 [1, 7]: 5.02 ± 2.12 µM; IC50 [2, 7]: 4.8 ± 2.2 µM; IC50 [3, 7]: 4.43 ± 0.32 µM |
| CN1CC[C@@]2(O)Oc3ccc(Cl)cc3[C@@H](O)[C@H]2C1 | 172 to 173 | – | – | – | – | – | – | – | – |
| CN1CC=C2Oc3ccc(Br)cc3C=C2C1 [2b, 8-Bromo-2,3-dihydro-2-methyl-1H-chromeno[3,2-c]pyridine] | – | – | 7.88 ± 0.02 µM | – | – | 31 | – | – | IC50 ([1]; Homo sapiens, HCT-116, 72 h): > 50 µM; IC50 ([2]; Homo sapiens, MCF7, 72 h): 42.9 ± 4.82 µM; hBChE % inhibition at 10 μM (BChE from human serum): n.i.; IC50 ([3]; Homo sapiens, SK-OV-3, 72 h): > 50 µM; IC50 (human recombinant MAO A): 0.703 ± 0.012 µM; Selectivity for MAO A over MAO B (human recombinant MAO A; from MAO A and MAO B inhibition data): about tenfold |
| COc1ccc2[nH]cc(C3C4=C(CCN(C)C4)Oc4ccc(Cl)cc43)c2c1 (stereo not shown) [6b, 8-Chloro-10-(5-metoxy-1H-indole-3-yl)-2-methyl-2,3,4,10-tetrahydro-1H-chromeno[3,2-c]pyridine] | – | 18.6 ± 2.22 | 4.72 ± 0.1 µM | 6.62 ± 2.7 | 15 | 53 | 22.3 ± 1.42 | 21 | – |
| CN1CCC2=C(C1)C(c1c[nH]c3ccccc13)c1cc(Cl)ccc1O2 (stereo not shown) [6a, 8-Chloro-10-(1H-indole-3-yl)-2-methyl-2,3,4,10-tetrahydro-1H-chromeno[3,2-c]pyridine] | – | 8.62 ± 2.21 | 7.3 ± 0.65 µM | 4.8 ± 0.81 | 38 | 53 | 14.7 ± 2.81 | 21 | – |
| COc1cccc2c1O[C@]1(O)CCN(C)C[C@H]1[C@@H]2O | 148 to 149 | – | – | – | – | – | – | – | – |
